Measurements reported in US20240390295A1, “METHODS FOR TREATING DEPRESSION” (JANSSEN PHARMACEUTICA NV, priority 2020, published 2024).
“And” between values parts separate entries of the source, which are not always exact repeats. Identical values can stand only once.

System: adult patients (aged 18-64 years) with TRD
Assay: Maximum time to onset of clinician-reported adverse events by AE week 1/week 4 occurrence (Tables 5-16; modal dose 56, modal dose 84, Total)
Assay type: in vivo, human
Details: for Blood Pressure (clinician): n >60 m / Blood Pressure (clinician): 31-60 m / Blood Pressure (clinician): 61-90 m / Blood Pressure (clinician): % >60 m / Blood Pressure (clinician): TOTAL / Dissociation (clinician), % >60 m / Dizziness, % >60 m / Sedation, % >60 m / Vertigo, % >60 m: Based on Week 4; for Sedation(clinician-reported), n (%) / Vertigo(clinician-reported), n (%) / Dissociation(clinician-reported), n (%) / Blood pressure increased (clinician-reported), n (%) / Dizziness(clinician-reported), n (%): listed as ESK
Protocol: Patients were monitored for >90 minutes after ESK administration at each treatment session, after which time they could leave the clinical site at the clinician's discretion. AEs were monitored and reported, and safety assessments, including clinical laboratory tests and physical examinations, were conducted throughout the study. Clinician-reported AEs were categorized as mild, moderate, or severe based on clinical judgement (Table 1).
Since flexible dosing (ESK 56 or 84 mg) was permitted in the studies and an individual patient's doses could change within dosing timeframes, patients were stratified by modal dose during the respective periods.
The time to onset of the adverse events experienced by patients in Example 2 was analyzed. Tables 5-11 include the summary of specific adverse events by their respective categorized maximum time to Onset (i) across sessions 3-8 during Induction Phase by AE week 1 occurrence (Table 5), (ii) during Optimization Phase by AE week 1 occurrence (Table 6), (iii) during Optimization Phase by AE week 4 occurrence (Table 7), (iv) during Month 3-6 of Maintenance Phase by AE week 1 occurrence (Table 8), (v) Month 3-6 of Maintenance Phase by AE week 4 occurrence (Table 9), (vi) Month 6-12 of Maintenance Phase by AE week 1 occurrence (Table 10), and (vii) during Month 6-12 of Maintenance Phase by AE week 4 (Table 11).
Tables 12-16 include the incidences of clinician-reported blood pressure (Table 12), clinician-reported dissociation (Table 13), dizziness (Table 14), sedation (Table 15), and vertigo (Table 16) spanning week 1 to month 12 using the data of Example 2.

[1] = Induction Phase sessions 3-8, AE week 1 None
[2] = Induction Phase sessions 3-8, AE week 1 Once
[3] = Induction Phase sessions 3-8, AE week 1 Twice
[4] = Month 3-6 Maintenance, AE week 1 None, onset missing
[5] = Month 3-6 Maintenance, AE week 4 None, onset 31-60 minutes
[6] = Month 3-6 Maintenance, AE week 4 None, onset missing
[7] = Month 6-12 Maintenance, AE week 4 Once
[8] = Month 6-12 Maintenance, AE week 4 Twice, onset 31-60 minutes
[9] = Optimization Phase, AE week 1 Once
[10] = Optimization Phase, AE week 4 None

CN[C@]1(c2ccccc2Cl)CCCCC1=O [esketamine, (S)-2-(2-chlorophenyl)-2-(methylamino)cyclohexanone]
Blood Pressure (clinician): n >60 m (None, Month 3-6): 1 | Blood Pressure (clinician): 31-60 m (None, Month 6-12): 6 | Blood Pressure (clinician): 61-90 m (None, Month 6-12): 1 | Blood Pressure (clinician): % >60 m (None, Month 6-12): 12.5% | Blood Pressure (clinician): TOTAL (None, Month 6-12): 8 | Blood Pressure (clinician): n >60 m (None, Month 6-12): 1 | Blood Pressure (clinician): 31-60 m (Once, Month 2): 9 | Blood Pressure (clinician): % >60 m (Once, Month 2): 0% | Blood Pressure (clinician): TOTAL (Once, Month 2): 9 | Blood Pressure (clinician): n >60 m (Once, Month 2): 0 | Blood Pressure (clinician): 31-60 m (Once, Month 3-6): 5 | Blood Pressure (clinician): % >60 m (Once, Month 3-6): 0% | Blood Pressure (clinician): TOTAL (Once, Month 3-6): 5 | Blood Pressure (clinician): n >60 m (Once, Month 3-6): 0 | Blood Pressure (clinician): 31-60 m (Once, Month 6-12): 3 | Blood Pressure (clinician): % >60 m (Once, Month 6-12): 0% | Blood Pressure (clinician): TOTAL (Once, Month 6-12): 3 | Blood Pressure (clinician): n >60 m (Once, Month 6-12): 0 | Blood Pressure (clinician): 31-60 m (Twice, Month 2): 9 | Blood Pressure (clinician): % >60 m (Twice, Month 2): 0% | Blood Pressure (clinician): TOTAL (Twice, Month 2): 9 | Blood Pressure (clinician): n >60 m (Twice, Month 2): 0 | Blood Pressure (clinician): 31-60 m (Twice, Month 3-6): 2 | Blood Pressure (clinician): 61-90 m (Twice, Month 3-6): 1 | Blood Pressure (clinician): % >60 m (Twice, Month 3-6): 33.3% | Blood Pressure (clinician): TOTAL (Twice, Month 3-6): 3 | Blood Pressure (clinician): n >60 m (Twice, Month 3-6): 1 | Blood Pressure (clinician): 31-60 m (Twice, Month 6-12): 2 | Blood Pressure (clinician): % >60 m (Twice, Month 6-12): 0% | Blood Pressure (clinician): TOTAL (Twice, Month 6-12): 2 | Blood Pressure (clinician): n >60 m (Twice, Month 6-12): 0 | Dissociation (clinician), % >60 m (incidence None, Month 2): 0% | Dizziness, % >60 m (incidence None, Month 2): 8.6% | Sedation, % >60 m (incidence None, Month 2): 0% | Vertigo, % >60 m (incidence None, Month 2): 12% | Dissociation (clinician), % >60 m (incidence None, Month 3-6): 2.6% | Dizziness, % >60 m (incidence None, Month 3-6): 2.1% | Sedation, % >60 m (incidence None, Month 3-6): 14.3% | Vertigo, % >60 m (incidence None, Month 3-6): 13.6% | Dissociation (clinician), % >60 m (incidence None, Month 6-12): 4.2% | Dizziness, % >60 m (incidence None, Month 6-12): 0% | Sedation, % >60 m (incidence None, Month 6-12): 0% | Vertigo, % >60 m (incidence None, Month 6-12): 0% | Dissociation (clinician), % >60 m (incidence Once, Month 2): 4.8% | Dizziness, % >60 m (incidence Once, Month 2): 3.7% | Sedation, % >60 m (incidence Once, Month 2): 0% | Vertigo, % >60 m (incidence Once, Month 2): 4.3% | Dissociation (clinician), % >60 m (incidence Once, Month 3-6): 6.7% | Dizziness, % >60 m (incidence Once, Month 3-6): 0% | Sedation, % >60 m (incidence Once, Month 3-6): 0% | Vertigo, % >60 m (incidence Once, Month 3-6): 0% | Dissociation (clinician), % >60 m (incidence Once, Month 6-12): 0% | Dizziness, % >60 m (incidence Once, Month 6-12): 0% | Sedation, % >60 m (incidence Once, Month 6-12): 0% | Vertigo, % >60 m (incidence Once, Month 6-12): 25% | Dissociation (clinician), % >60 m (incidence Twice, Month 2): 0% | Dizziness, % >60 m (incidence Twice, Month 2): 3.8% | Sedation, % >60 m (incidence Twice, Month 2): 0% | Vertigo, % >60 m (incidence Twice, Month 2): 0% | Dissociation (clinician), % >60 m (incidence Twice, Month 3-6): 3% | Dizziness, % >60 m (incidence Twice, Month 3-6): 3% | Sedation, % >60 m (incidence Twice, Month 3-6): 0% | Vertigo, % >60 m (incidence Twice, Month 3-6): 9.5% | Dissociation (clinician), % >60 m (incidence Twice, Month 6-12): 0% | Dizziness, % >60 m (incidence Twice, Month 6-12): 5.9% | Sedation, % >60 m (incidence Twice, Month 6-12): 0% | Vertigo, % >60 m (incidence Twice, Month 6-12): 0% | Blood pressure increased: time to onset 31-60 minutes [1]: 10 (90.9%) and 10 (100%) and 20 (95.2%) | Sedation: time to onset 31-60 minutes [1]: 2 (22.2%) and 2 (20.0%) and 4 (21.1%) | Sedation: time to onset >90 minutes [1]: 1 (11.1%) and 1 (10.0%) and 2 (10.5%) | Vertigo: time to onset 61-90 minutes [1]: 1 (3.3%) and 1 (6.7%) and 2 (4.4%) | Dizziness: time to onset 31-60 minutes [2]: 4 (12.1%) and 4 (17.4%) and 8 (14.3%) | Dizziness: time to onset 61-90 minutes [2]: 1 (3.0%) and 1 (4.3%) and 2 (3.6%) | Vertigo: time to onset >90 minutes [2]: 1 (9.1%) and 1 (5.6%) and 2 (6.9%) | Dissociation: time to onset 61-90 minutes [3]: 2 (5.6%) and 2 (7.1%) and 4 (6.3%) | Dizziness: time to onset >90 minutes [3]: 1 (2.8%) and 1 (2.5%) and 2 (2.6%) | Sedation(clinician-reported), n (%) (Month 3-6 Maintenance, AE week 1 None, onset 31-60 minutes): 1 (20.0%) and 1 (8.3%) and 2 (11.8%) | Vertigo(clinician-reported), n (%) (Month 3-6 Maintenance, AE week 1 None, onset 61-90 minutes): 1 (10.0%) and 1 (12.5%) and 2 (11.1%) | Dissociation(clinician-reported), n (%) [4]: 1 (5.9%) and 1 (5.3%) and 2 (5.6%) | Sedation(clinician-reported), n (%) [4]: 1 (20.0%) and 1 (8.3%) and 2 (11.8%) | Blood pressure increased (clinician-reported), n (%) (Month 3-6 Maintenance, AE week 1 Once): 2 (2.0%) and 2 (1.9%) and 4 (2.0%) | Blood pressure increased (clinician-reported), n (%) (Month 3-6 Maintenance, AE week 1 Once, onset 31-60 minutes): 2 (100%) and 4 (100%) | Blood pressure increased (clinician-reported), n (%) (Month 3-6 Maintenance, AE week 1 Twice): 2 (2.0%) and 2 (1.9%) and 4 (2.0%) | Vertigo(clinician-reported), n (%) (Month 3-6 Maintenance, AE week 1 Twice, onset 0-30 minutes): 11 (91.7%) and 11 (84.6%) and 22 (88.0%) | Dissociation(clinician-reported), n (%) [5]: 5 (27.8%) and 5 (25.0%) and 10 (26.3%) | Sedation(clinician-reported), n (%) [5]: 1 (20.0%) and 1 (11.1%) and 2 (14.3%) | Vertigo(clinician-reported), n (%) (Month 3-6 Maintenance, AE week 4 None, onset 61-90 minutes): 1 (8.3%) and 1 (10.0%) and 2 (9.1%) | Dissociation(clinician-reported), n (%) [6]: 1 (5.6%) and 1 (5.0%) and 2 (5.3%) | Dizziness(clinician-reported), n (%) [6]: 2 (6.9%) and 2 (11.1%) and 4 (8.5%) | Vertigo(clinician-reported), n (%) (Month 3-6 Maintenance, AE week 4 Once): 3 (3.0%) and 3 (2.9%) and 6 (3.0%) | Vertigo(clinician-reported), n (%) (Month 3-6 Maintenance, AE week 4 Once, onset 0-30 minutes): 3 (100%) and 6 (100%) | Dizziness(clinician-reported), n (%) (Month 3-6 Maintenance, AE week 4 Once, onset 31-60 minutes): 1 (14.3%) and 1 (16.7%) and 2 (15.4%) | Vertigo(clinician-reported), n (%) (Month 3-6 Maintenance, AE week 4 Twice, onset 61-90 minutes): 1 (12.5%) and 1 (7.7%) and 2 (9.5%) | Sedation(clinician-reported), n (%) (Month 6-12 Maintenance, AE week 1 None): 5 (7.5%) and 5 (8.3%) and 10 (7.9%) | Sedation(clinician-reported), n (%) (Month 6-12 Maintenance, AE week 1 None, onset missing): 1 (20.0%) and 2 (20.0%) | Dizziness(clinician-reported), n (%) (Month 6-12 Maintenance, AE week 1 Twice): 7 (10.4%) and 7 (11.7%) and 14 (11.0%) | Vertigo(clinician-reported), n (%) (Month 6-12 Maintenance, AE week 1 Twice, onset 31-60 minutes): 1 (10.0%) and 1 (16.7%) and 2 (12.5%) | Sedation(clinician-reported), n (%) (Month 6-12 Maintenance, AE week 4 None): 4 (6.0%) and 4 (6.7%) and 8 (6.3%) | Vertigo(clinician-reported), n (%) (Month 6-12 Maintenance, AE week 4 None, onset 31-60 minutes): 1 (14.3%) and 1 (25.0%) and 2 (18.2%) | Sedation(clinician-reported), n (%) (Month 6-12 Maintenance, AE week 4 None, onset missing): 1 (25.0%) and 2 (25.0%) | Sedation(clinician-reported), n (%) [7]: 2 (3.0%) and 2 (3.3%) and 4 (3.1%) | Vertigo(clinician-reported), n (%) [7]: 2 (3.0%) and 2 (3.3%) and 4 (3.1%) | Vertigo(clinician-reported), n (%) (Month 6-12 Maintenance, AE week 4 Once, onset 0-30 minutes): 1 (50.0%) and 2 (50.0%) | Dissociation(clinician-reported), n (%) (Month 6-12 Maintenance, AE week 4 Once, onset 31-60 minutes): 1 (100%) and 1 (12.5%) and 2 (22.2%) | Blood pressure increased (clinician-reported), n (%) (Month 6-12 Maintenance, AE week 4 Twice): 1 (1.5%) and 1 (1.7%) and 2 (1.6%) | Blood pressure increased (clinician-reported), n (%) [8]: 1 (100%) and 2 (100%) | Vertigo(clinician-reported), n (%) [8]: 1 (11.1%) and 1 (16.7%) and 2 (13.3%) | Dizziness: time to onset >90 minutes [9]: 1 (5.6%) and 1 (6.7%) and 2 (6.1%) | Sedation: patients with AE [9]: 2 (1.5%) and 2 (1.2%) and 4 (1.3%) | Vertigo: time to onset 31-60 minutes [9]: 1 (12.5%) and 1 (9.1%) and 2 (10.5%) | Vertigo: time to onset >90 minutes [9]: 1 (12.5%) and 1 (9.1%) and 2 (10.5%) | Blood pressure increased: patients with AE [10]: 9 (6.8%) and 9 (5.4%) and 18 (6.0%) | Dissociation: patients with AE [10]: 23 (17.4%) and 23 (13.8%) and 46 (15.4%) | Sedation: patients with AE [10]: 5 (3.8%) and 5 (3.0%) and 10 (3.3%) | Vertigo: time to onset 61-90 minutes [10]: 1 (10.0%) and 1 (6.7%) and 2 (8.0%) | Dizziness: time to onset 31-60 minutes (Optimization Phase, AE week 4 Once): 1 (9.1%) and 1 (6.3%) and 2 (7.4%) | Dizziness: time to onset 31-60 minutes (Optimization Phase, AE week 4 Twice): 1 (3.7%) and 1 (3.8%) and 2 (3.8%) | time at which adverse events (particularly dissociation, increase in blood pressure) generally peak (human, in vivo, other: intranasal): ~40 min
